Columns and labels:
AsPC-1 cells [1] = assay: 3H-methyl thymidine incorporation (cell proliferation assay); format: cell-based, human
Method: Cell culture. The poorly differentiated human pancreatic cancer line AsPC-1 was purchased from the American Type Culture Collection (ATCC, Manassas, Va., USA). Cells were cultured in MEM medium supplemented with penicillin G (100 U/mL), streptomycin (100 U/mL) and 10% FBS at 37° C. in humidified air with 5% CO2. Cells were harvested by incubation in trypsin-EDTA solution for 10–15 minutes. Cells were then centrifuged at 300×g for 5 minutes and cell pellets were suspended in fresh culture medium prior to seeding into culture flasks or plates.
Cell proliferation assay. Cell growth was analyzed by ^3H-methyl thymidine incorporation and cell counting. Following treatment of pancreatic cancer cells with a series of concentrations of frondoside A from 1 μg/mL to 16 μg/mL, cellular DNA synthesis was assayed by adding ^3H-methyl thymidine at 0.5 μLCi/well. After 2 hours incubation, the cells were washed twice with PBS, precipitated with 10% TCA for two hours, and solubilized from each well with 0.5 ml of 0.4 N NaOH. Incorporation of ^3H-methyl thymidine into DNA was measured by adding scintillation liquid and counting in a scintillation counter (LKB BackBeta, Wallac, Turku, Finland). For cell counting, cells were seeded in 12 wells plates and cultured with serum-free medium for 24 hours prior to frondoside A treatment and then switched to serum-free medium with or without 4 μg/mL frondoside A for the respective treatment time points (24, 48 and 72 hours). The cells were removed from the plate by trypsinization to produce a single cell suspension for cell counting. The cells were counted using Z1-Coulter Counter (Luton, UK).

AsPC-1 cells [2] = assay: Morphological studies (apoptosis); format: cell-based, human; conditions: 4 μg/mL, within 24 hours
Method: Morphological studies. The photomicrographs of cell morphological changes were taken with a Kodak DC 120 digital zoom camera under an inverted microscope (400×) following treatment with or without 4 μg/mL frondoside A for different time periods from 24 to 72 hours.

AsPC-1 cells [3] = assay: TUNEL assay; format: cell-based, human; conditions: 4 μg/mL, 72 hours; control 2.4%, P<0.001
Method: Terminal deoxynucleotidyl transferase-mediated deoxyuridine triphosphate nick-end labeling (TUNEL) assay. The assay was carried out for terminal incorporation of fluorescein 12-dUTP by terminal deoxynucleotidyl transferase into fragmented DNA in cancer cells (TUNEL assay kits, Promega, Madison, Wis.). Cells were cultured to 50%–60% confluence in T75 flasks in serum-free conditions for 24 hours and then treated with or without 4 μg/mL Frondoside A for 72 hours. Cells were then trypsinized and fixed in 1% methanol-free formaldehyde-PBS for 15 minutes. At the end of treatment, cells were harvested with trypsin-EDTA solution to produce a single cell suspension. Cells were then pelleted by centrifugation and washed twice with PBS. Cell pellets were suspended in 0.5 ml PBS and fixed in ice-cold 70% ethanol at 4° C. Fixed cells were centrifuged at 300×g for 10 minutes and pellets were washed with PBS. After resuspension with 1 ml PBS, cells were incubated with 10 μL of RNase I (10 mg/mL) and 100 μL of propidium iodide (400 μg/mL; Sigma) and shaken for 1 hour at 37° C. in the dark. Samples were analyzed by flow cytometry. Laser flow cytometry was used to quantify the green fluorescence of fluorescein-12-dUTP incorporated against the red fluorescence of propidium iodide.

caspase 9 = assay: Western blotting, caspase 9 in AsPC-1 cells; format: cell-based, human; conditions: 4 μg/mL, time-dependent (FIG. 3)
Method: (§1) Western blotting. Cells were seeded into flasks and cultured to 50% to 60% confluence for 24 hours. Cells were then placed in serum-free medium with or without 4 μg/mL frondoside A for periods of 0, 24, 48 and 72 hours respectively. Proteins were extracted from attached and floating cells in lysis buffer containing 4% SDS. Protein concentrations were determined using the bicinchoninic acid assay with BSA as standard. Western blotting was carried out. In brief, equal amounts of protein in the cell lysates were separated on 15% SDS-PAGE and the proteins were transferred onto nitrocellulose membranes. After blocking non-specific sites with dried milk, membranes were incubated with the appropriate dilution of primary antibody. Membranes were then incubated with a horseradish peroxidase conjugated secondary antibody. Proteins were detected using an enhanced chemiluminescence detection system.

Bax = assay: Western blotting, Bax in AsPC-1 cells; format: cell-based, human; conditions: 4 μg/mL (FIG. 4)
Method: as §1

p27 = assay: Western blotting, p27 in AsPC-1 cells; format: cell-based, human; conditions: 4 μg/mL (FIG. 5)
Method: as §1

[4] = tested on: PC-3 (human prostate adenocarcinoma); assay: cells; conditions: for Percent Growth (Mean ± SEM, n = 2): 72-hour
Method: Test Substance and Concentration. Frondoside A (FAS) was dissolved in 100% DMSO and then diluted with sterile distilled water to obtain initial working solutions of 1000, 300, 100, 30, and 10 μM in 40% DMSO. […]
Cell Line and Culture Media. The tumor cell line PC-3 (human prostate adenocarcinoma), obtained from American Type Culture Collection (ATCC CRL-1435), was incubated in air atmosphere of 5% CO2 at 37° C. The culture medium used was F-12K Nutrient Mixture (Kaighn's Modification) with 3% fetal bovine serum, which was supplemented with 1% Antibiotic-Antimycotic.
Evaluation of anti-proliferation for test substances. Aliquots of 100 μl of cell suspension (about 2.5×10^3 cells/well) were placed in 96-well microtiter plates in an atmosphere of 5% CO2 at 37° C. […] Thus, the final concentration of DMSO was 0.4%. The Frondoside A was evaluated for possible inhibitory effects on cell proliferation at concentrations of 10, 3, 1, 0.3 and 0.1 μM. At the end of incubation, 20 μl of 90% alamarBlue reagent was added to each well for another 6-hour incubation before detection of cell viability by fluorescent intensity. Fluorescent intensity was measured using a Spectrafluor Plus plate reader with excitation at 530 nm and emission at 590 nm.
Determination of IC50, TGI and LC50. The measured results was calculated by the following formula: PG(%)=100%×(Mean Ftest−Mean Ftime0)/(Mean Fctrl−Mean Ftime0) If (Mean Ftest−Mean Ftime0)<0, then PG (%)=100%×(Mean Ftest−Mean Ftime0)/(Mean Ftime0−Mean Fblank) Where: • PG: percent growth • Mean Ftime0=The average of 2 measured fluorescent intensities of reduced alamarBlue at the time just before exposure of cells to the test substance. • Mean Ftest=The average of 2 measured fluorescent intensities of alamarBlue after 72-hour exposure of cells to the test substance. • Mean Fctrl=The average of 2 measured fluorescent intensities of alamarBlue after 72-hour incubation without the test substance. • Mean Fblank=The average of 2 measured fluorescent intensities of alamarBlue in medium without cells after 72-hour incubation.

cancer cells = assay: Anti-cancer / apoptotic promoting activity, method not described; conditions: no test described for Frondoside B

## COC1C(O)C(CO)OC(OC2C(O)COC(OC3C(C)OC(OC4C(OC5CCC6(C)C7CCC89C(=O)OC(C)(CCCC(C)C)C8C(OC(C)=O)CC9(C)C7=CCC6C5(C)C)OCC(OS(=O)(=O)[O-])C4O)C(OC4OCC(O)C(O)C4O)C3O)C2O)C1O.[Na+] [Frondoside A, 3-O-methyl-β-D-glucopyranosyl-(1→3)-β-D-xylopyranosyl-(1→4)-[β-D-xylopyranosyl-(1→2)]-β-D-quinovopyranosyl-(1→2)-4-O-sodium sulfate-β-D-xylopyranosyl-3-O-holost-7(8)-en-3β-ol-16β-O-acetate]
AsPC-1 cells [1]; 4 μg/mL, within 24 hours
  reduction of incorporation of 3H-methyl thymidine into DNA: approximately 50%
AsPC-1 cells [1]; AsPC-1 cells, 1 μg/mL to 16 μg/mL, concentration-dependent (FIG. 1)
  inhibition of thymidine incorporation: marked inhibition of thymidine incorporation
AsPC-1 cells [1]; immediate necrosis of cells
  concentrations causing cytotoxicity (cell necrosis): higher than 16 μg/mL
AsPC-1 cells [2]
  morphological changes: marked morphological changes characteristic of apoptosis
AsPC-1 cells [3]
  TUNEL staining: 36.1%
Caspase 9
  activation of caspase 9: reduction in the amounts of the respective procaspase forms
Bax
  concentrations of the pro-apoptotic protein Bax: increased
p27
  expression of p27: not changed
[4]; PC-3, 0.1 μM
  Percent Growth (Mean ± SEM, n = 2): 98 ± 3%
[4]; PC-3, 0.3 μM
  Percent Growth (Mean ± SEM, n = 2): 103 ± 1%
[4]; PC-3, 1 μM
  Percent Growth (Mean ± SEM, n = 2): 98 ± 3%
[4]; PC-3, 3 μM
  Percent Growth (Mean ± SEM, n = 2): −98 ± 1%
[4]; PC-3, 10 μM
  Percent Growth (Mean ± SEM, n = 2): −97 ± 1%
[4]; PC-3, semi-quantitative, nonlinear regression
  TGI (Total Growth Inhibition): 1700 nM
[4]; between 1 and 10 μM
  growth inhibition of PC-3 relative to the vehicle treated control group: significant growth inhibition
[4]; read-out: IC50 (50% Inhibition Concentration), PC-3, semi-quantitative, nonlinear regression
  IC50: 1500 nM
[4]; read-out: LC50 (50% Lethal Concentration), PC-3, semi-quantitative, nonlinear regression
  CC50: 2000 nM
Cancer cells
  apoptotic promoting activity in cancer cells: apoptotic promoting activity

— patent US7144867B2, “Anticancer glycoside compounds” (priority 2004, dated 2006)
